Legend:
[1] = tested on: IL-2 in activated CD4+ human T-cells; experiment: IL-2 inhibition in supernatants from activated CD4+ human T-cells (cisbio HTRF); format: cell-based; settings: T-cell; geometric mean of count n; CD3/CD28-expanded human CD4+ T cells stimulated with ImmunoCult, 20 to 24 hrs
Procedure: IL-2-Inhibition Activity, IC50 (uM)
IL-2 inhibition activity in supernatants from activated CD4+ human T-cells was determined by measuring the effect of a test compound on the activity using the cisbio HTRF™ technology.
Human CD4+ T cells were activated with CD3/CD28 for 3 days and expanded for an additional 4-6 days (7 to 9 days total). On day 0, frozen CD4+ T cells were thawed, treated with CD3/CD28 Dynabeads, and incubated at 37° C./5% CO2. On day 3, the beads were removed, and the cells were diluted to 5×10^5 cells/cm^2, placed in G-Rex10 flask, and incubated at 37° C./5% CO2. On day 7 to day 9 the cells were removed from the G-Rex flasks, counted and diluted back to 1×10^6 cells/ml in standard tissue culture flask.
The expanded CD4+ T-cells were centrifuged at 300×g for 10 minutes and resuspended to 0.5 million cells per ml (30,000 cells/well). 60 μl of CD4+ T cells were added per well to a 384 well plate containing 0.1 μL of varying concentrations of test compound in DMSO. The plates were incubated for 15 min at 37° C./5% CO2. 20 μl of diluted ImmunoCult™ ([…] Technologies, 1:12.5 in T cell assay media) were added to all wells of the plate (1:50 final assay concentration). The plates were incubated for an additional 20 to 24 hrs at 37° C./5% CO2. The plates were centrifuged at 300×g for 10 minutes. 16 μL of supernatant was removed and combined with 4 μl of IL-2 HTRF Abs. (cisbio kit). Plates were incubated for 3 hours at RT and read with an EnVision plate reader at 665 nm and 615 nm wavelengths.

[2] = target: Tropomyosin receptor kinase A (TRKA, NTRK1) (Homo sapiens (Human), UniProt P04629); experiment: TRKA (NTRK1) enzyme Z'-LYTE assay; format: biochemical; settings: arithmetic mean of count n; test compound 1 uM, ATP 1 mM
Sequence of Tropomyosin receptor kinase A (TRKA, NTRK1) (P04629 33-796): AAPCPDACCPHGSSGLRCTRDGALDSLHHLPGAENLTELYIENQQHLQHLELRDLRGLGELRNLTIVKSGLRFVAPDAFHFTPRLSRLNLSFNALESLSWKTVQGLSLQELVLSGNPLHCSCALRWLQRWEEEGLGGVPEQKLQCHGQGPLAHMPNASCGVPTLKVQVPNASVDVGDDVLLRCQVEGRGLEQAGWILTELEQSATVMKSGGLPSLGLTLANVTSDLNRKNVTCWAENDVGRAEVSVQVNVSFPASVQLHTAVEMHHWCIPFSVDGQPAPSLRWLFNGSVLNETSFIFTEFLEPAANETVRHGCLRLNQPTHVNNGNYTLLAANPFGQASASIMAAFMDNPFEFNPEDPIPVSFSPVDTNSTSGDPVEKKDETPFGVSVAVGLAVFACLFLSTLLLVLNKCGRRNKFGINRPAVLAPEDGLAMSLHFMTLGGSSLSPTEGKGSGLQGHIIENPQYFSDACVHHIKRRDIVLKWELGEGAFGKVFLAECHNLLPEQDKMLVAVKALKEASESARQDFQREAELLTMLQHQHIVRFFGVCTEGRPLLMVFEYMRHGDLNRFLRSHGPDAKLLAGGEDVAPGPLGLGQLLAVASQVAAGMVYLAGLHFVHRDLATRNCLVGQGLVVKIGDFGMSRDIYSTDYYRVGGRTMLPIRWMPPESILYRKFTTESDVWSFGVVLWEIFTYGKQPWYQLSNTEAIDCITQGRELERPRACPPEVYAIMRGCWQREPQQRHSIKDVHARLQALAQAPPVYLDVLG
Procedure: Tropomyosin Receptor Kinase a (TRKA) Activity, % Inhibition
TRKA, also known as neurotrophic tyrosine kinase receptor type 1 (NTKR1) activity was determined by measuring the effect of a test compound on the activity against the NTRK1 enzyme using the ThermoFisher Z'-LYTE Assay fluorescence-based coupled enzyme format (www.thermofisher.com/selectscreen). […] The resulting effect value for the tested compound was compared to the assay controls to determine the % inhibition (%).

Structure (SMILES)	IC50 [1] [nM]	inhibition at 1 µM [2] [%]
C[C@@H](C(=O)N(C)c1cc(C#N)c2[nH]c(-c3n[nH]c4c3C[C@@H]3C[C@]3(C)C4)nc2c1)N1CCOCC1 [Example 38, (S)—N-(7-cyano-2-((4aS,5aR)-5a-methyl-1,4,4a,5,5a,6-hexahydrocyclopropa[f]indazol-3-yl)-1H-benzo[d]imidazol-5-yl)-N-methyl-2-morpholinopropanamide]	85	96
COc1cc(N(C)C(=O)[C@H](C)N2CCOCC2)cc2nc(-c3n[nH]c4c3C[C@@H]3C[C@]3(C)C4)[nH]c12 [Example 40, (S)—N-(7-methoxy-2-((4aS,5aR)-5a-methyl-1,4,4a,5,5a,6-hexahydrocyclopropa[f]indazol-3-yl)-1H-benzo[d]imidazol-5-yl)-N-methyl-2-morpholinopropanamide]	103	96
C[C@@H](C(=O)N(C)c1cc(C(F)(F)F)c2[nH]c(-c3n[nH]c4c3C[C@@H]3C[C@]3(C)C4)nc2c1)N1CCOCC1 [Example 41, (S)—N-methyl-N-(2-((4aS,5aR)-5a-methyl-1,4,4a,5,5a,6-hexahydrocyclopropa[f]indazol-3-yl)-7-(trifluoromethyl)-1H-benzo[d]imidazol-5-yl)-2-morpholinopropanamide]	176	96
COCc1cc(N(C)C(=O)[C@H](C)N2CCOCC2)cc2nc(-c3n[nH]c4c3C[C@@H]3C[C@]3(C)C4)[nH]c12 [Example 42, (S)—N-(7-(methoxymethyl)-2-((4aS,5aR)-5a-methyl-1,4,4a,5,5a,6-hexahydrocyclopropa[f]indazol-3-yl)-1H-benzo[d]imidazol-5-yl)-N-methyl-2-morpholinopropanamide]	200	98
C[C@@H](C(=O)N(C)c1cc(Cl)c2[nH]c(-c3n[nH]c4c3C[C@@H]3C[C@]3(C)C4)nc2c1)N1CCOCC1 [Example 43, (S)—N-(7-chloro-2-((4aS,5aR)-5a-methyl-1,4,4a,5,5a,6-hexahydrocyclopropa[f]indazol-3-yl)-1H-benzo[d]imidazol-5-yl)-N-methyl-2-morpholinopropanamide]	171	96
CCc1cc(N(C)C(=O)[C@H](C)N2CCOCC2)cc2nc(-c3n[nH]c4c3C[C@@H]3C[C@]3(C)C4)[nH]c12 [Example 44, (S)—N-(7-ethyl-2-((4aS,5aR)-5a-methyl-1,4,4a,5,5a,6-hexahydrocyclopropa[f]indazol-3-yl)-1H-benzo[d]imidazol-5-yl)-N-methyl-2-morpholinopropanamide]	219	94
C[C@@H](C(=O)N(C)c1cc(CO)c2[nH]c(-c3n[nH]c4c3C[C@@H]3C[C@]3(C)C4)nc2c1)N1CCOCC1 [Example 45, (S)—N-(7-(hydroxymethyl)-2-((4aS,5aR)-5a-methyl-1,4,4a,5,5a,6-hexahydrocyclopropa[f]indazol-3-yl)-1H-benzo[d]imidazol-5-yl)-N-methyl-2-morpholinopropanamide]	365	97

Other lines, results leading:

IC50 [1] [nM]	inhibition at 1 µM [2] [%]	Structure (SMILES)
161	98	Cc1c(F)c(N(C)C(=O)[C@H](C)N2CCOCC2)cc2nc(-c3n[nH]c4c3C[C@@H]3C[C@]3(C)C4)[nH]c12 [Example 47, (S)—N-(6-fluoro-7-methyl-2-((4aS,5aR)-5a-methyl-1,4,4a,5,5a,6-hexahydrocyclopropa[f]indazol-3-yl)-1H-benzo[d]imidazol-5-yl)-N-methyl-2-morpholinopropanamide]
207	95	C[C@@H](C(=O)N(C)c1cc(C(F)F)c2[nH]c(-c3n[nH]c4c3C[C@@H]3C[C@]3(C)C4)nc2c1)N1CCOCC1 [Example 48, (S)—N-(7-(difluoromethyl)-2-((4aS,5aR)-5a-methyl-1,4,4a,5,5a,6-hexahydrocyclopropa[f]indazol-3-yl)-1H-benzo[d]imidazol-5-yl)-N-methyl-2-morpholinopropanamide]
100	98	COCCOc1cc2[nH]c(-c3n[nH]c4c3C[C@@H]3C[C@]3(C)C4)nc2cc1N(C)C(=O)[C@H](C)N1CCOCC1 [Example 49, (S)—N-(6-(2-methoxyethoxy)-2-((4aS,5aR)-5a-methyl-1,4,4a,5,5a,6-hexahydrocyclopropa[f]indazol-3-yl)-1H-benzo[d]imidazol-5-yl)-N-methyl-2-morpholinopropanamide]
126	97	Cc1cc(N(C)C(=O)[C@H](C)N2CCOCC2)cc2nc(-c3n[nH]c4c3C[C@@H]3C[C@]3(C)C4)[nH]c12 [Example 50, (S)—N-methyl-N-(7-methyl-2-((4aS,5aR)-5a-methyl-1,4,4a,5,5a,6-hexahydrocyclopropa[f]indazol-3-yl)-1H-benzo[d]imidazol-5-yl)-2-morpholinopropanamide]
19	97	Cc1cc(N(C)C(=O)[C@H](C)N2CCOCC2)cc2nc(-c3n[nH]c4c3C[C@@H]3C(F)(F)[C@]3(C)C4)[nH]c12 [Example 51, (S)—N-(2-((4aS,5aR)-5,5-difluoro-5a-methyl-1,4,4a,5,5a,6-hexahydrocyclopropa[f]indazol-3-yl)-7-methyl-1H-benzo[d]imidazol-5-yl)-N-methyl-2-morpholinopropanamide]
274	109	Cc1cc2[nH]c(-c3n[nH]c4c3C[C@@H]3C[C@]3(C)C4)nc2cc1NC(=O)[C@H](C)N1CCOCC1 [Example 52, (S)—N-(6-methyl-2-((4aS,5aR)-5a-methyl-1,4,4a,5,5a,6-hexahydrocyclopropa[f]indazol-3-yl)-1H-benzo[d]imidazol-5-yl)-2-morpholinopropanamide]
41	89	C[C@@H](C(=O)N(C)c1cc(C#N)c2[nH]c(-c3n[nH]c4c3C[C@@H]3C[C@]3(C)C4)nc2c1)C1CCOCC1 [Example 55, (R)—N-(7-cyano-2-((4aS,5aR)-5a-methyl-1,4,4a,5,5a,6-hexahydrocyclopropa[f]indazol-3-yl)-1H-benzo[d]imidazol-5-yl)-N-methyl-2-(tetrahydro-2H-pyran-4-yl)propanamide]

From patent US11661419B2, “Benzimidazole derivative compounds and uses thereof” (Pfizer Inc., priority 2019, dated 2023)
